Reference: ChEMBL document CHEMBL5500324, “The potential of marine-derived piperazine alkaloids: Sources, structures and bioactivities” (Eur J Med Chem, 2024)
Values after ≈ are worked out from the molar mass of the structure shown. One block for each compound: values may come before it.

Tests used:
[1] = test system: HepG2; assay: Antiproliferative activity against human HepG2 cells assessed as reduction in cell viability by CCK-8 assay; format: functional, cell-based
[2] = test system: MDA-MB-231; assay: Antiproliferative activity against human MDA-MB-231 cells assessed as reduction in cell viability incubated for 72 hrs by SRB assay; format: functional, cell-based; settings: MDA-MB-231, 72 h
[3] = test system: A549; assay: Antiproliferative activity against human A549 cells assessed as reduction in cell viability incubated for 72 hrs by SRB assay; format: functional, cell-based; settings: A549, 72 h
[4] = test system: HT-29; assay: Antiproliferative activity against human HT-29 cells assessed as reduction in cell viability incubated for 72 hrs by SRB assay; format: functional, cell-based; settings: HT-29, 72 h
[5] = test system: HL-60; assay: Cytotoxicity against human HL-60 cells assessed as cell growth inhibition by MTT assay; format: functional, cell-based
[6] = test system: A549; assay: Cytotoxicity against human A549 cells assessed as reduction in cell growth by MTT assay; format: functional, cell-based
[7] = test system: K562; assay: Cytotoxicity against human K562 cells assessed as cell growth inhibition by MTT assay; format: functional, cell-based
[8] = test system: NCI-H1975; assay: Cytotoxicity against human NCI-H1975 cells assessed as cell growth inhibition by MTT assay; format: functional, cell-based
[9] = test system: HCT-116; assay: Cytotoxicity against human HCT-116 cells assessed as reduction in cell growth by MTT assay; format: functional, cell-based
[10] = Cytotoxicity against human AML1 cells expressing FLT3-ITD mutant assessed as cell viability; format: functional, cell-based
[11] = test system: A549; assay: Cytotoxicity against human A549 cells assessed as reduction in cell viability incubated for 48 hrs by Celltiter-Glo assay; format: functional, cell-based; settings: A549, 48 h
[12] = Cytotoxicity against human HaCaT cells incubated for 24 hrs by MTS assay; format: toxicity, cell-based
[13] = test system: HCT-116; assay: Cytotoxicity against human HCT-116 cells assessed as reduction in cell viability incubated for 48 hrs by Celltiter-Glo assay; format: functional, cell-based; settings: HCT-116, 48 h
[14] = test system: A549; assay: Cytotoxicity against human A549 cells assessed as inhibition of cell growth incubated for 72 hrs by SRB assay; format: functional, cell-based; settings: A549, 72 h
[15] = test system: MCF7; assay: Cytotoxicity against human MCF7 cells assessed as inhibition of cell growth incubated for 72 hrs by SRB assay; format: functional, cell-based; settings: MCF7, 72 h
[16] = test system: SF-268; assay: Cytotoxicity against human SF-268 cells assessed as inhibition of cell growth incubated for 72 hrs by SRB assay; format: functional, cell-based; settings: SF-268, 72 h
[17] = test system: HepG2; assay: Cytotoxicity against human HepG2 cells assessed as inhibition of cell growth incubated for 72 hrs by SRB assay; format: functional, cell-based; settings: HepG2, 72 h
[18] = test system: HCT-116; assay: Cytotoxicity against human HCT-116 cells assessed as reduction in cell viability incubated for 48 hrs by MTT assay; format: functional, cell-based; settings: HCT-116, 48 h
[19] = test system: A549; assay: Cytotoxicity against human A549 cells assessed as reduction in cell viability incubated for 48 hrs by MTT assay; format: functional, cell-based; settings: A549, 48 h
[20] = test system: HCT-116; assay: Antiproliferative activity against human HCT-116 cells assessed as reduction in cell growth; format: functional, cell-based
[21] = test system: MCF7; assay: Antiproliferative activity against human MCF7 cells assessed as reduction in cell viability incubated for 72 hrs by MTT assay; format: functional, cell-based; settings: MCF7, 72 h
[22] = test system: AGS; assay: Antiproliferative activity against human AGS cells assessed as reduction in cell viability measured for 48 hrs by Cell-Titer Glo assay; format: functional, cell-based
[23] = test system: A549; assay: Antiproliferative activity against human A549 cells assessed as reduction in cell viability incubated for 72 hrs by CCK-8 assay; format: functional, cell-based; settings: A549, 72 h
[24] = test system: HL-60; assay: Cytotoxicity against human HL-60 cells assessed as reduction in cell growth; format: functional, cell-based
[25] = test system: T47D; assay: Antiproliferative activity against human T47D cells incubated for 48 hrs by MTT assay; format: functional, cell-based
[26] = test system: U-937; assay: Cytotoxicity against human U-937 cells assessed as inhibition of cell growth; format: functional, cell-based
[27] = test system: L1210; assay: Cytotoxicity against mouse L1210 assessed as cell growth inhibition; format: functional, cell-based
[28] = test system: HeLa; assay: Cytotoxicity against human HeLa cells assessed as cell growth inhibition; format: functional, cell-based

IC50 [1]: 21 µg/mL (≈ 45.6 µM)
Compound: CS[C@@]12CC3=CC=C[C@H](OC(C)=O)[C@H]3N1C(=O)[C@]1(SC)CC3=CC=C[C@H](O)[C@H]3N1C2=O

IC50 [2]: 28 µM
IC50 [3]: 20.3 µM
IC50 [4]: 19.3 µM
Compound: CN1C[C@@H](c2c[nH]c3cc(Br)ccc23)N(C)C[C@@H]1c1c[nH]c2cc(Br)ccc12

Compound: CN1C(=O)[C@]23SSS[C@]1(CO)C(=O)N2[C@H]1Nc2ccccc2C1(C12c4ccccc4N[C@H]1N1C(=O)[C@@]4(CO)SSS[C@]1(C(=O)N4C)[C@H]2O)[C@@H]3O (some centres undefined)
IC50 [5]: 1.5 µM
IC50 [6]: 0.7 µM
IC50 [7]: 1 µM
IC50 [8]: 0.8 µM
IC50 [9]: 0.3 µM

Compound: CC1(C)C=Cc2c(ccc3c2N[C@@]24N5C(=O)[C@@H]6CCCN6C(=O)[C@]5(O)C[C@@]32O[C@H](CO)C4(C)C)O1
IC50 [10]: 7.2 µM

Compound: CCCCCCCCC[C@@H](CC(=O)NCCCCN)N1CC(=O)N(O)[C@H](Cc2ccccc2)C1=O
IC50 [11]: 37.9 µM
IC50 at 24 h [12]: 37.5 µM
IC50 [13]: 39.5 µM

Compound: CN1C(=O)[C@H]2CSC3=C(C(=O)c4ccccc4C3=O)N2C[C@@H]1CO
IC50 [14]: 34.4 µM
IC50 [15]: 25.7 µM
IC50 [16]: 17 µM
IC50 [17]: 31.2 µM

Compound: CN1C(=O)[C@@]23CSC4=C(C(=O)c5ccccc5C4=O)N2C[C@@H]1CO3
IC50 [14]: 13.5 µM
IC50 [15]: 20.7 µM
IC50 [16]: 11.9 µM
IC50 [17]: 12 µM

Compound: CN1C(=O)[C@]23SSS[C@]1(CO)C(=O)N2[C@H]1Nc2ccccc2C1(C12c4ccccc4N[C@H]1N1C(=O)[C@@]4(CO)SSSS[C@]1(C(=O)N4C)[C@H]2O)[C@@H]3O (some centres undefined)
IC50 [5]: 1.9 µM
IC50 [6]: 1.9 µM
IC50 [7]: 1.9 µM
IC50 [8]: 3.6 µM
IC50 [9]: 2.1 µM

Compound: CC(C)/C=c1/[nH]c(=O)/c(=C/c2ccccc2)n(C)c1=O
IC50 [18]: > 100 µg/mL
IC50 [19]: 89.4 µg/mL (≈ 331 µM)

IC50 [20]: 13.8 µM
IC50 [21]: 10 µM
IC50 [22]: 12 µM
IC50 [23]: 12 µM
Compound: CC(=O)O[C@H]1C=CC=C2C[C@@]34SS[C@]5(CC6=COC=C[C@H](OC(C)=O)[C@H]6N5C3=O)C(=O)N4[C@@H]21

IC50 [2]: 3.8 µM
IC50 [3]: 3.1 µM
IC50 [4]: 3.3 µM
Compound: CN1C[C@@H](c2c[nH]c3cc(Br)ccc23)NC[C@@H]1c1c[nH]c2cc(Br)ccc12

Compound: CC(C)=CCc1[nH]cnc1/C=C1\NC(=O)CNC1=O
IC50 [10]: 0.22 µM

IC50 [1]: 48 µg/mL (≈ 108 µM)
Compound: CS[C@@]12CC3=CC=CC[C@H]3N1C(=O)[C@]1(SC)CC3=CC=C[C@H](OC(C)=O)[C@H]3N1C2=O

IC50 [2]: 4.7 µM
IC50 [3]: 2.7 µM
IC50 [4]: 3.3 µM
Compound: CN1C[C@@H](c2c[nH]c3cc(Br)ccc23)NC[C@@H]1c1c[nH]c2ccccc12

IC50 [20]: 21 µM
IC50 [21]: 36 µM
IC50 [22]: 32 µM
IC50 [23]: 23 µM
Compound: CC(=O)O[C@H]1C=COC=C2C[C@@]34SS[C@]5(CC6=COC=C[C@H](OC(C)=O)[C@H]6N5C3=O)C(=O)N4[C@@H]21

IC50 [25]: 11.6 µg/mL (≈ 30.2 µM)
Compound: CC(C)=CCC/C(C)=C/COc1ccc(/C=C2\NC(=O)[C@H](C)N(O)C2=O)cc1
IC50 [24]: 11.6 µg/mL (≈ 30.2 µM)
IC50 [26]: 11.6 µg/mL (≈ 30.2 µM)

Compound: CCCCCCCCCC(CC(=O)NCCCN)N1CC(=O)N(O)C(Cc2ccccc2)C1=O (centres undefined)
IC50 [11]: 43.2 µM
IC50 at 24 h [12]: 50 µM
IC50 [13]: 59.9 µM

Compound: C=CC(C)(C)[C@]1(C[C@H]2NC(=O)[C@H]3CCCN3C2=O)C(=O)Nc2c1ccc1c2C=CC(C)(C)O1
IC50 [27]: 22 µg/mL (≈ 48.9 µM)
IC50 [28]: 50 µg/mL (≈ 111 µM)

Compound: CC1(C)C=Cc2c(ccc3c2NC(=O)[C@@]32C[C@@]34NC(=O)[C@]5(CCCN5C3=O)C[C@H]4C2(C)C)O1 [NOTOAMIDE B]
IC50 [27]: 36 µg/mL (≈ 80.4 µM)
IC50 [28]: 52 µg/mL (≈ 116 µM)
